Test results from paper PMC12552937, “Kinetic mechanisms of electron bifurcation with electron transfer flavoprotein, NADH, butyryl-CoA dehydrogenase, and ferredoxin reveal a semiquinone cycle” (The Journal of Biological Chemistry, 2025).

What was measured:
[1] = biological target: T1, EtfAB (electron transfer flavoprotein) (Acidaminococcus fermentans, UniProt D2RIQ2); test: anaerobic stopped-flow, beta-FAD reduction and charge-transfer complex at […] nm; type: biochemical; conditions: 40 μM EtfAB + 40 μM NADH, 50 mM potassium phosphate pH 7.0, 4 °C; beta-FAD site
T1 construct: gene Acfer_0555; recombinant from E. coli, pET-11a, no tag told; heterodimer with alpha-FAD (EtfA) and beta-FAD (EtfB); with Electron transfer flavoprotein subunit alpha
T1 sequence (D2RIQ2 1-263): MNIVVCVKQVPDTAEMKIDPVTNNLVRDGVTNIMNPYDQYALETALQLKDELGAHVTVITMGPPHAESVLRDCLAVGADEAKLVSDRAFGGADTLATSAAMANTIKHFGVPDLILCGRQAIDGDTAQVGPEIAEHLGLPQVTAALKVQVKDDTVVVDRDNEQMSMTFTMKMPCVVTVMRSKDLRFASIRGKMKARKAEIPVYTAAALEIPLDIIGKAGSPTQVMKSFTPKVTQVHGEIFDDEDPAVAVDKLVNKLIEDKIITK
T1 sequence (D2RIQ3 1-340 partner): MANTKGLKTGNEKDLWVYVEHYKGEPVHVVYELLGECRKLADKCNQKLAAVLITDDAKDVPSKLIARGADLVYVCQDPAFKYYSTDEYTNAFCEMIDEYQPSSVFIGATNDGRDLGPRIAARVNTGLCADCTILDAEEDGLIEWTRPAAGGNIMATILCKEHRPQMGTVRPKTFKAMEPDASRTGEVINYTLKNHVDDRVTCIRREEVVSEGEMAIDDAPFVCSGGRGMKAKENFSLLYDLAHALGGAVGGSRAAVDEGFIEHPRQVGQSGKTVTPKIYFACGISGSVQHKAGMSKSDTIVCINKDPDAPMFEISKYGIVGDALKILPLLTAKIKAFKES

[2] = biological target: T2, Bcd (butyryl-CoA dehydrogenase) (Acidaminococcus fermentans, UniProt D2RL84); test: static titration, double-beam UV-visible difference absorbance at […] nm; type: binding
T2 construct: gene Acfer_1477; recombinant from E. coli, pET-11a, no tag told; homotetramer with one delta-FAD per subunit
T2 sequence (D2RL84 1-383): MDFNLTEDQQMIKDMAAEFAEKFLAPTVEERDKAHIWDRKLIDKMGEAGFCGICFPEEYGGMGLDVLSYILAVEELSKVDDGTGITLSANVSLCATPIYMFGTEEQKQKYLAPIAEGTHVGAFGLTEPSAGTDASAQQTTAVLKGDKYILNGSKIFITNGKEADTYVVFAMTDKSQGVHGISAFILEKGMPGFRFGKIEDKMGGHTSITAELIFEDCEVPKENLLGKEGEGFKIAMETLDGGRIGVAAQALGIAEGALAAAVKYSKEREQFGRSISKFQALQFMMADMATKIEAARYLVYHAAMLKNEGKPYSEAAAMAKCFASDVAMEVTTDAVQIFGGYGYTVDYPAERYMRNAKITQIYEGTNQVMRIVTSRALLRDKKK

`NC(=O)C1=CN([C@@H]2O[C@H](COP(=O)(O)OP(=O)(O)OC[C@H]3O[C@@H](n4cnc5c(N)ncnc54)[C@H](O)[C@@H]3O)[C@@H](O)[C@H]2O)C=CC1` [NADH] was tested, and the “anaerobic stopped-flow, beta-FAD reduction and charge-transfer complex at 650 nm” value [1] was “mixing EtfAB with a stoichiometric amount NADH resulted in a rapid reduction of β-FAD”.

`C/C=C/C(=O)SCCNC(=O)CCNC(=O)[C@H](O)C(C)(C)COP(=O)(O)OP(=O)(O)OC[C@H]1O[C@@H](n2cnc3c(N)ncnc32)[C@H](O)[C@@H]1OP(=O)(O)O` [crotonyl-CoA] gave a Kd [2] of 95 ± 6 µM.
